Each structure is given as a SMILES string.

The nature of the first data set: log P by HPLC on reversed-phase column (C18), EEC Directive 79/831 Annex V.A8. It counts as physicochemical. Conditions: C18, 40° C., 0.1% aqueous formic acid and acetonitrile, gradient 10% to 90% acetonitrile. The procedure:
Temperature: 40° C.; Mobile phases: 0.1% aqueous formic acid and acetonitrile; linear gradient from 10% acetonitrile to 90% acetonitrile.
On to `Cc1nn(C)c(F)c1C(=O)N(C1CC1)C(C)c1ncc(Cl)cc1Cl` (centres unmarked) [Example 28], for which the logP is on record as 2.77.

As for `Cc1ncoc1C(=O)N(C1CC1)C(C)c1cnccn1` (centres unmarked) [Example 44], the log partition coefficient (logP) came out at 1.37.

On to `CC(c1ncc(Cl)cc1Cl)N(C(=S)c1cn(C)nc1C(F)F)C1CC1` (centres unmarked) [Example 32], for which the logP is 4.01.

In turn, `Cc1nn(C)cc1C(=O)N(C1CC1)C(C)c1cnccn1` (centres unmarked) [Example 40] registered a logP of 1.25.

The molecule `Cc1nc(C(F)(F)F)c(C(=O)N(Cc2ccc(Cl)cn2)C2CC2)s1` [Example 51] came in with a logP of 2.93.

`COc1ccnc(CN(C(=O)c2sc(C)nc2C(F)F)C2CC2)c1OC` [Example 110] registered a log partition coefficient (logP) of 1.2.

`Cn1cc(C(=O)N(Cc2ccc(Cl)nc2)C2CC2)c(C(F)(F)F)n1` [Example 65] yielded a logP of 2.02.

`COc1ccnc(CN(C(=O)c2cn(C)cc2C(F)(F)F)C2CC2)c1OC` [Example 112] gave a logP of 1.32.

The molecule `COc1ccc(CN(C(=O)c2ccco2)C2CC2)cn1` [Example 56] had a log partition coefficient (logP) of 1.97.

On to `Cc1nn(C)cc1C(=O)N(C1CC1)C(C)c1cccnc1Cl` (racemic) [Example 78], for which the log partition coefficient (logP) turned out to be 1.58.

The molecule `COc1ccc(CN(C(=O)c2ccsc2I)C2CC2)cn1` [Example 55] showed a log partition coefficient (logP) of 2.75.

Turning to `O=C(c1sccc1I)N(Cc1ccc(Cl)cn1)C1CC1` [Example 53], the logP was 3.17.

For `O=C(c1ccsc1I)N(Cc1ccc(Cl)nc1)C1CC1` [Example 66], the logP is given as 2.67.

The molecule `CCC(c1ccncc1)N(C(=O)c1cn(C)nc1C(F)F)C1CC1` (centres unmarked) [Example 18] came in with a log partition coefficient (logP) of 1.79.

Molecule `COc1nn(C)cc1C(=O)N(Cc1ccc(Cl)nc1)C1CC1` [Example 74] had a log partition coefficient (logP) of 1.56.

`CCc1nn(C)c(F)c1C(=O)N(C1CC1)C(C)c1ncc(Cl)cc1Cl` (centres unmarked) [Example 33]: the logP turned out to be 3.23.

Turning to `Cn1nc(C(=O)N(Cc2ccncc2)C2CC2)c(C(F)(F)F)n1` [Example 15], the logP came to 1.03.

Take `Cn1cc(C(=O)N(Cc2ccc(Cl)cn2)C2CC2)c(C(F)(F)F)n1` [Example 48]: the logP was found to be 2.39.

In turn, `COc1ccc(CN(C(=O)c2ocnc2C)C2CC2)cn1` [Example 62] had a log partition coefficient (logP) of 1.72.

The molecule `Cc1nc(C(F)(F)F)ccc1CN(C(=O)c1cn(C)nc1C(F)(F)F)C1CC1` [Example 85] displayed a logP of 2.82.

In turn, `Cn1cc(C(=O)N(Cc2ccncc2)C2CC2)c(C(F)(F)F)c1` [Example 16] had a logP of 0.99.

As for `Cc1nc(C(=O)N(C2CC2)C(C)c2cnccn2)c(C)o1` (centres unmarked) [Example 39], the logP came out at 1.55.

Consider `Cn1cc(C(=O)N(Cc2cnc(Cl)cc2Cl)C2CC2)c(C(F)F)n1` [Example 10], for which the log partition coefficient (logP) is 2.46.

For the molecule `Cc1nn(C)c(F)c1C(=O)N(Cc1ccc(Oc2ccccc2)nc1)C1CC1` [Example 35], the lipophilicity (logP) was found to be 2.39.

`O=C(c1sccc1I)N(Cc1ncc(Cl)cc1Cl)C1CC1` [Example 26] displayed a logP of 4.16.

With `COc1ccc(CN(C(=O)c2nc(C)oc2C)C2CC2)cn1` [Example 57], the logP stood at 1.89.

As for `COc1ccc(CN(C(=O)c2cn(C)nc2C)C2CC2)cn1` [Example 58], the logP came to 1.53.

For the molecule `Cc1nc(C(F)F)c(C(=O)N(Cc2ccncc2)C2CC2)s1` [Example 14], the logP stood at 0.58.

In turn, `Cn1cc(C(=O)N(Cc2ccncc2)C2CC2)c(C(F)(F)F)n1` [Example 11] displayed a logP of 0.59.

The molecule `Cc1ccoc1C(=O)N(Cc1c(Cl)cncc1Cl)C1CC1` [Example 101] yielded a logP of 2.87.

Molecule `Cn1cc(C(=S)N(Cc2ccc(Cl)nc2)C2CC2)c(C(F)F)n1` [Example 73] came in with a logP of 2.58.

Molecule `CC(c1cnccn1)N(C(=S)c1cn(C)nc1C(F)F)C1CC1` (centres unmarked) [Example 43] showed a logP of 2.05.

Take `Cc1cc(C(=O)N(Cc2c(Cl)cncc2Cl)C2CC2)nn1C` [Example 107]: the lipophilicity (logP) is recorded as 2.

Take `CC(c1cnccn1)N(C(=O)c1ccsc1I)C1CC1` (centres unmarked) [Example 37]: the logP is 2.38.

Turning to `Cc1cc(C(=O)N(C2CC2)C(C)c2cccnc2Cl)no1` (racemic) [Example 83], the lipophilicity (logP) amounted to 2.07.

On to `Cc1cc(C(=O)N(C2CC2)C(C)c2cnccn2)nn1C` (centres unmarked) [Example 46], for which the log partition coefficient (logP) is recorded as 1.45.

As for `Cc1ccc(CN(C(=O)c2c(C)nn(C)c2F)C2CC2)cn1` [Example 7], the logP came to 0.43.

For the molecule `Cn1cc(C(=O)N(Cc2ccc(Oc3ccccc3)nc2)C2CC2)c(C(F)F)n1` [Example 36], the logP is on record as 2.61.

Molecule `COc1nn(C)cc1C(=O)N(Cc1ncc(Cl)cc1Cl)C1CC1` [Example 34] registered a logP of 2.21.

In the case of `Cn1cc(C(=O)N(Cc2ncc(Cl)cc2Cl)C2CC2)c(C(F)(F)F)n1` [Example 21], the logP was 3.21.

The molecule `Cc1nc(C(=O)N(Cc2c(Cl)cncc2Cl)C2CC2)c(C)o1` [Example 99] came in with a logP of 2.18.

Molecule `COc1ccnc(CN(C(=O)c2cn(C)nc2OC)C2CC2)c1OC` [Example 115] yielded a logP of 0.56.

The molecule `Cc1nn(C)c(F)c1C(=O)N(Cc1ncc(Cl)cc1Cl)C1CC1` [Example 29] showed a logP of 2.56.

Consider `Cc1nn(C)c(F)c1C(=O)N(Cc1c(Cl)cncc1Cl)C1CC1` [Example 102], for which the logP is listed as 2.01.

Turning to `Cn1cc(C(=O)N(Cc2c(Cl)cncc2Cl)C2CC2)c(C(F)F)n1` [Example 103], the logP is listed as 1.88.

Molecule `COc1ccnc(CN(C(=O)c2cn(C)nc2C(F)(F)F)C2CC2)c1OC` [Example 108] returned a lipophilicity (logP) of 1.18.

Consider `COc1nn(C)cc1C(=O)N(Cc1ccc(C(F)(F)F)nc1C)C1CC1` [Example 88], for which the lipophilicity (logP) was found to be 2.02.

Consider `Cc1cc(C(=O)N(C2CC2)C(C)c2cnc(Cl)c(Cl)c2)c(C)o1` (centres unmarked) [Example 3], for which the logP came to 3.7.

In the case of `Cc1nn(C)cc1C(=O)N(C1CC1)C(C)c1ncc(Cl)cc1Cl` (centres unmarked) [Example 27], the logP was determined as 2.4.

`COc1ccc(CN(C(=O)c2cn(C)nc2C(F)F)C2CC2)cn1` [Example 61]: the lipophilicity (logP) stood at 1.8.

Consider `Cc1cc(C(=O)N(Cc2ccc(Cl)cn2)C2CC2)c(C(F)(F)F)o1` [Example 50], for which the log partition coefficient (logP) is on record as 3.36.

`CC(c1cnccn1)N(C(=O)c1ccco1)C1CC1` (centres unmarked) [Example 38] yielded a logP of 1.62.

`O=C(c1ccsc1I)N(Cc1c(Cl)cncc1Cl)C1CC1` [Example 97]: the logP amounted to 3.21.

On to `CC(c1cnc(Cl)c(Cl)c1)N(C(=O)c1cn(C)nc1C(F)(F)F)C1CC1` (centres unmarked) [Example 1], for which the lipophilicity (logP) is 3.14.

In turn, `CC(c1cnccn1)N(C(=O)c1cn(C)nc1C(F)F)C1CC1` (centres unmarked) [Example 42] gave a logP of 1.47.

`COc1ccnc(CN(C(=O)c2cn(C)nc2C(F)F)C2CC2)c1OC` [Example 114] yielded a logP of 1.05.

The molecule `CC(c1cccnc1Cl)N(C(=O)c1cn(C)nc1C(F)F)C1CC1` (racemic) [Example 81] showed a logP of 1.88.

`Cc1cc(C(=O)N(Cc2c(Cl)cncc2Cl)C2CC2)no1` [Example 106] displayed a logP of 2.4.

In the case of `CCOc1nn(C)cc1C(=O)N(Cc1ncc(Cl)cc1Cl)C1CC1` [Example 22], the logP turned out to be 2.54.

In turn, `Cc1nn(C)c(F)c1C(=O)N(C1CC1)C(C)c1cnc(Cl)c(Cl)c1` (centres unmarked) [Example 4] displayed a log partition coefficient (logP) of 2.56.

`COc1ccnc(CN(C(=O)c2nn(C)nc2C(F)(F)F)C2CC2)c1OC` [Example 111]: the log partition coefficient (logP) was determined as 1.44.

On to `Cc1nn(C)c(F)c1C(=S)N(C1CC1)C(C)c1ncc(Cl)cc1Cl` (centres unmarked) [Example 30], for which the lipophilicity (logP) is recorded as 3.9.

Regarding `Cn1cc(C(=S)N(Cc2c(Cl)cncc2Cl)C2CC2)c(C(F)F)n1` [Example 104], the log partition coefficient (logP) came out at 2.93.

The molecule `Cc1nn(C)cc1C(=O)N(Cc1c(Cl)cncc1Cl)C1CC1` [Example 100] yielded a lipophilicity (logP) of 1.8.

On to `Cn1cc(C(=O)N(Cc2ccc(Cl)cn2)C2CC2)c(C(F)F)n1` [Example 54], for which the logP is 2.08.

For `CC(c1cnc(Cl)c(Cl)c1)N(C(=O)c1cn(C)nc1C(F)F)C1CC1` (centres unmarked) [Example 5], the logP was found to be 2.67.

In the case of `Cc1nc(C(F)(F)F)c(C(=O)N(Cc2ccncc2)C2CC2)s1` [Example 13], the logP was 0.93.

`COc1nn(C)cc1C(=O)N(C1CC1)C(C)c1cnc(Cl)c(Cl)c1` (centres unmarked) [Example 6]: the logP came out at 2.29.

As to `Cc1ccoc1C(=O)N(C1CC1)C(C)c1cnccn1` (centres unmarked) [Example 41], the log partition coefficient (logP) was found to be 2.04.

Turning to `Cc1ccc(CN(C(=O)c2cn(C)nc2C(F)F)C2CC2)cn1` [Example 8], the lipophilicity (logP) came to 0.52.

`COc1ccc(CN(C(=O)c2c(C)nn(C)c2F)C2CC2)cn1` [Example 60] yielded a logP of 1.64.

`CC(c1cnc(Cl)c(Cl)c1)N(C(=O)c1cn(C)cc1C(F)(F)F)C1CC1` (centres unmarked) [Example 2] showed a logP of 3.34.

Molecule `COc1ccc(CN(C(=O)c2cc(C)on2)C2CC2)cn1` [Example 63] registered a logP of 2.08.

The molecule `Cc1cc(C(=O)N(C2CC2)C(C)c2cnccn2)no1` (centres unmarked) [Example 45] gave a logP of 1.65.

In the case of `Cc1nn(C)c(F)c1C(=O)N(Cc1cnc(Cl)cc1Cl)C1CC1` [Example 9], the logP worked out at 2.28.

`Cn1cc(C(=O)N(Cc2ccc(Cl)nc2)C2CC2)c(C(F)F)n1` [Example 72] had a logP of 1.97.

The molecule `Cc1ncoc1C(=O)N(Cc1c(Cl)cncc1Cl)C1CC1` [Example 105] displayed a logP of 2.04.

`Cc1nc(C(F)(F)F)c(C(=O)N(Cc2ncc(Cl)cc2Cl)C2CC2)s1` [Example 23] gave a logP of 3.76.

`COc1ccnc(CN(C(=O)c2ccsc2I)C2CC2)c1OC` [Example 109] registered a logP of 1.47.

The same data set, now with this note: reversed-phase HPLC column (C18), C18, 40° C., 0.1% aqueous formic acid and acetonitrile, gradient 10% to 90% acetonitrile.
The molecule `COc1ccnc(CN(C(=O)c2c(C)nn(C)c2F)C2CC2)c1OC` [Example 113, N-cyclopropyl-N-[(3,4-dimethoxypyridin-2-yl)methyl]-5-fluoro-1,3-dimethyl-1H-pyrazole-4-carboxamide] yielded a chromatographic logP of 1.65.

These data come from US7803821B2, “Fungicide N-cycloalkyl-carboxamide, thiocarboxamide and N-substituted-carboximidamide derivatives” (Bayer Cropscience SA, priority 2006, dated 2010).
